Results from paper PMC3265371 (Nature Communications, 2011).
Read-outs that look alike come from different tables or passages of the source. Each block holds one molecule with its values, some of them ahead of it.

How the values were obtained:
[1] = target: T1, CNGA1 (homomeric channel) (Bos taurus, UniProt Q00194); assay: inside-out patch clamp, activated current; assay type: biochemical; settings: 2.5 mM cGMP, ±60 mV, pH 7.2; activation, saturating
T1 sequence (Q00194 1-690): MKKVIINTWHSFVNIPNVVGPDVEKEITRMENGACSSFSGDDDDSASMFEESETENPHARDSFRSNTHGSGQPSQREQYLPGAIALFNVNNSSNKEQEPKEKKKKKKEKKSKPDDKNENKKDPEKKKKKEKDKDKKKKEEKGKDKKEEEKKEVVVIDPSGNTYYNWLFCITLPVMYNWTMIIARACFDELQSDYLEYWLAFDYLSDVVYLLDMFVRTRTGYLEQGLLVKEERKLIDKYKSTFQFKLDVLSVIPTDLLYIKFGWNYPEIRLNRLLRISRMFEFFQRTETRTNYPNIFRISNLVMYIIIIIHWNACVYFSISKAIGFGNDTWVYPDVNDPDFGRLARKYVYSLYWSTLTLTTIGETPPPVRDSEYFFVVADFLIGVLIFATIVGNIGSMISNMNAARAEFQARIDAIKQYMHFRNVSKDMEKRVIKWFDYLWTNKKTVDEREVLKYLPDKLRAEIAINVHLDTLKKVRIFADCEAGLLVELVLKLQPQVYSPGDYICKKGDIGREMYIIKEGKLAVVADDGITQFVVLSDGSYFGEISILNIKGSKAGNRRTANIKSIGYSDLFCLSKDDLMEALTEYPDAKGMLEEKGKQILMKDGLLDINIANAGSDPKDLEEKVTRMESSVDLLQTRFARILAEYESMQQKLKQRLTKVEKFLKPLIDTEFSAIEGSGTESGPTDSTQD

[2] = target: T2, CNGA1-ΔCLZ (homomeric channel) (Bos taurus, UniProt Q00194, DEL609-693); assay: inside-out patch clamp, block of cGMP-activated current; assay type: cell-based
T2 sequence (Q00194 1-608): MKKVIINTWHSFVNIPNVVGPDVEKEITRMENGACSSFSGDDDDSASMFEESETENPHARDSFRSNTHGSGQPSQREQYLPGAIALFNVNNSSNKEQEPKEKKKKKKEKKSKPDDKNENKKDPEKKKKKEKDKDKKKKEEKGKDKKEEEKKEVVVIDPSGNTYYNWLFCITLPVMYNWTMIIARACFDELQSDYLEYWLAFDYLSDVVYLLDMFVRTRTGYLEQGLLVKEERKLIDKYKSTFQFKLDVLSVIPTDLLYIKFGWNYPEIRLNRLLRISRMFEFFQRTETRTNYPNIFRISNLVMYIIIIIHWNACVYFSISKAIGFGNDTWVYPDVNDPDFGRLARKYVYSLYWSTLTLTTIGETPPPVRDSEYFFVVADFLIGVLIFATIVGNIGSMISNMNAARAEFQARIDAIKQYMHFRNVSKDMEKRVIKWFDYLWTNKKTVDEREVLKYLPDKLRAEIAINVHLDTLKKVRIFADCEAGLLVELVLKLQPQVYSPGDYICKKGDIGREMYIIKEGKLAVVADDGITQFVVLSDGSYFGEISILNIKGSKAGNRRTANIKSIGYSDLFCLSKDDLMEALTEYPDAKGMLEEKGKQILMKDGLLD

[3] = target: CNGA1+CNGB1 (heteromeric rod CNG channel) (Bos taurus, UniProt Q00194+Q28181); assay: as above; assay type: cell-based
CNGA1+CNGB1-ΔN = CNGA1+CNGB1-ΔN (Bos taurus, UniProt Q00194+Q28181, DEL2-765); assay: as above; assay type: cell-based
[4] = target: T1, CNGA1 (homomeric channel); assay: as above; assay type: cell-based
SEC-MALS = target: the molecule itself; assay: SEC-MALS
[5] = target: the molecule itself

Chain of CNGA1+CNGB1 (heteromeric rod CNG channel) (Q28181 whole entry, one chain of several): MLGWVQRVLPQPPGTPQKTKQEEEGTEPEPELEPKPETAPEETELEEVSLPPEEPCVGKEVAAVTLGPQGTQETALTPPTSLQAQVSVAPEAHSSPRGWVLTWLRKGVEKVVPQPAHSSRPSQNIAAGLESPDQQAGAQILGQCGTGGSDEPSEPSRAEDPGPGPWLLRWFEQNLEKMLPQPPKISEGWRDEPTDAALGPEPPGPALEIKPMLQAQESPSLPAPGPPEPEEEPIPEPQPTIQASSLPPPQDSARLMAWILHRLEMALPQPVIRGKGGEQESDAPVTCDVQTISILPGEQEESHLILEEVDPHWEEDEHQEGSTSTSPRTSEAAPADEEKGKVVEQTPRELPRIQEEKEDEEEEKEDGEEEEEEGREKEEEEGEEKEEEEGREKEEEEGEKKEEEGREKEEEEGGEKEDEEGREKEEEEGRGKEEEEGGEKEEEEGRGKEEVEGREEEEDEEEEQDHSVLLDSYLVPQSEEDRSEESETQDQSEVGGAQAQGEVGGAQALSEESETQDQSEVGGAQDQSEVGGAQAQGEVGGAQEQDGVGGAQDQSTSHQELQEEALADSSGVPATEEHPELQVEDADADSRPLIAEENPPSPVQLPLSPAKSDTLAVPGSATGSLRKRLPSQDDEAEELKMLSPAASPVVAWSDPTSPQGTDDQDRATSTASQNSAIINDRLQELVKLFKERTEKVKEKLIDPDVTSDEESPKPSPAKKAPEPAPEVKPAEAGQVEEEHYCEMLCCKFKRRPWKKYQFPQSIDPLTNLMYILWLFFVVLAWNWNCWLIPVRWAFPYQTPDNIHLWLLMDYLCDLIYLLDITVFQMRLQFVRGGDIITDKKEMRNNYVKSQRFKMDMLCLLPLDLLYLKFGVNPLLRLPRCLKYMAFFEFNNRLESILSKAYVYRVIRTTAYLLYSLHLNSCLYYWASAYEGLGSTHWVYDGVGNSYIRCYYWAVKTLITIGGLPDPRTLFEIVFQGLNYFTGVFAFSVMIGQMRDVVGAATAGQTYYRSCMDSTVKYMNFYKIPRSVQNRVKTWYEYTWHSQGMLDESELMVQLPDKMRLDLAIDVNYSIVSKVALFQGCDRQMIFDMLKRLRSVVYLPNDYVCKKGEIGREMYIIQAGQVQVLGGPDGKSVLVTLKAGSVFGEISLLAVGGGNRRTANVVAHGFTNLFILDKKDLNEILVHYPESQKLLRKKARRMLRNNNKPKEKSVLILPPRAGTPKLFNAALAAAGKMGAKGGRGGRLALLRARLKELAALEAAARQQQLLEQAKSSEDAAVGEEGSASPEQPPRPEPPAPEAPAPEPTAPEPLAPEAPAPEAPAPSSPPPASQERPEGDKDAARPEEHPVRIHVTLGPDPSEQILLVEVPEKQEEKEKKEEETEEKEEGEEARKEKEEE
Chain of CNGA1+CNGB1-ΔN (Q28181 766-1394, stated change not applied, one chain of several): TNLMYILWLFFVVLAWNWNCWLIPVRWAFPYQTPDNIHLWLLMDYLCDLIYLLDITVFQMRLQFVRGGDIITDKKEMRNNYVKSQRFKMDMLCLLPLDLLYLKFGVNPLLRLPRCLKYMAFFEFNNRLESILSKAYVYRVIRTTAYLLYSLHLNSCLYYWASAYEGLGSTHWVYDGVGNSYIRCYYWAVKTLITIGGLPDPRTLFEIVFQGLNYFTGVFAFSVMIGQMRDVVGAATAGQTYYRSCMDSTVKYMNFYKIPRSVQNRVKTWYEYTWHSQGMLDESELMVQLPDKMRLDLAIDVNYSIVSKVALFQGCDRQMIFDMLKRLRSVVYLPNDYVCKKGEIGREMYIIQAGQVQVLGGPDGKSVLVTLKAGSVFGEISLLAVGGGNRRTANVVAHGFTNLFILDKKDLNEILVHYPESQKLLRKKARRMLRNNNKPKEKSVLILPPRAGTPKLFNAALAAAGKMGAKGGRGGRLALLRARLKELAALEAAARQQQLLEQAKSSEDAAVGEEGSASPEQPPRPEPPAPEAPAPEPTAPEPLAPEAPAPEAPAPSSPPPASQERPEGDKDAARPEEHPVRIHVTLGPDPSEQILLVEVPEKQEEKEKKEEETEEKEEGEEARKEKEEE

Molecule: Nc1nc2c(ncn2[C@@H]2O[C@@H]3COP(=O)(O)O[C@H]3[C@H]2O)c(=O)[nH]1 [cGMP]
inside-out patch clamp, activated current [1]: Homomeric channels of CNGA1 subunits are efficiently activated by saturating cGMP

IC50 [2]: 164 ± 8.2 µM
IC50 [3]: 2.45 ± 0.28 µM
IC50 (CNGA1+CNGB1-ΔN): 1.4 ± 0.21 µM
IC50 [4]: 174 ± 7.2 µM
Molecule: COc1ccc([C@H]2Sc3ccccc3N(CCN(C)C)C(=O)[C@H]2OC(C)=O)cc1 [L-cis-diltiazem]

B1: CNGA3#626–694 (domain or fragment, human, UniProt Q16281 626-694, looked up)
chain: LEEKVEQLGSSLDTLQTRFARLLAEYNATQMKMKQRLSQLESQVKGGGDKPLADGEVPGDATKTEDKQQ
stoichiometry N (SEC-MALS): 3

Molecule: LEEKVTRMESSVDLLQTRFARILAEYESMQQKLKQRLTKVEKFLKPL (domain or fragment, bovine, UniProt Q00194 621-667, looked up) [CNGA1#621–667]
stoichiometry N [5]: 3

Molecule: LEEKVEQLGSSLDTLQTRFARLLAEYNATQMKMKQRLSQLESQVKGG (domain or fragment, human, UniProt Q16281 626-672, looked up) [CNGA3#626–672]
stoichiometry N [5]: 3

B2: CNGA1#621–690 (domain or fragment, bovine, UniProt Q00194 621-690, looked up)
chain: LEEKVTRMESSVDLLQTRFARILAEYESMQQKLKQRLTKVEKFLKPLIDTEFSAIEGSGTESGPTDSTQD
stoichiometry N (SEC-MALS): 3
